From patent US11053244B1, “4-azaindole compounds” (BRISTOL-MYERS SQUIBB COMPANY, priority 2017, dated 2021)
Blank lines part the entries; values can stand above or below the compound they belong to.

Key:
TLR7 = TLR7 (Mus musculus (Mouse), UniProt P58681); assay: In vivo mouse TLR7 PD model (gardiquimod-induced plasma IL-6 and IFN-alpha); details: plasma 90 min after gardiquimod, vs vehicle
Experimental: In Vivo Mouse TLR7 PD Model:
Adult male C5-7BL/6 mice were used for the experiments. Mice (7 to 10 per group) were randomized into different treatment groups based on body weight. Mice from the respective treatment groups were administered orally with vehicle or test compound. Thirty min after the oral administration of vehicle or test compound, mice were challenged with intraperitoneal injection of gardiquimod for TLR7 PD model. Ninety minutes after gardiquimod injection, mice were bled under isoflurane anaesthesia and plasma IL-6 and IFN-alpha levels were estimated by using commercially available ELISA kit (BD Biosciences, PBL Life Sciences). At the end of experiment, mean cytokine data was plotted and one way ANOVA with Dunnett's test was performed to calculate the significance of test compound treated group vs. vehicle control group. Percent inhibition of cytokine induction was calculated for test compound treated group vs vehicle control group.

human TLR9 = human TLR9 (Homo sapiens (Human), UniProt Q9NR96); assay: TLR9 inhibition reporter assay (HEK-Blue cells, SEAP reporter, ODN2006 stimulation); details: read-out: TLR9 IC50
Experimental: TLR7/8/9 Inhibition Reporter Assays
(§1) HEK-Blue™-cells (Invivogen) overexpressing human TLR7, TLR8 or TLR9 receptors were used for screening inhibitors of these receptors using an inducible SEAP (secreted embryonic alkaline phosphatase) reporter gene under the control of the IFN-β minimal promoter fused to five NF-κB and AP-1-binding sites. Briefly, cells are seeded into Greiner 384 well plates (15000 cells per well for TLR7, 20,000 for TLR8 and 25,000 for TLR9) and then treated with test compounds in DMSO to yield a final dose response concentration range of 0.05 nM-50 μM. After a 30 minute compound pre-treatment at room temperature, the cells are then stimulated with a TLR7 ligand (gardiquimod at a final concentration of 7.5 μM), TLR8 ligand (R848 at a final concentration of 15.9 μM) or TLR9 ligand (ODN2006 at a final concentration of 5 nM) to activate NF-κB and AP-1 which induce the production of SEAP. After a 22 hour incubation at 37° C., 5% CO2, SEAP levels are determined with the addition of HEK-Blue™ Detection reagent (Invivogen), a cell culture medium that allows for detection of SEAP, according to manufacturer's specifications.

human TLR7 = human TLR7 (Homo sapiens (Human), UniProt Q9NYK1); assay: TLR7 inhibition reporter assay (HEK-Blue cells, SEAP reporter, gardiquimod stimulation); type: cell-based
Experimental: as §1

human TLR8 = human TLR8 (Homo sapiens (Human), UniProt Q9NR97); assay: TLR8 inhibition reporter assay (HEK-Blue cells, SEAP reporter, R848 stimulation); details: read-out: TLR8 IC50
Experimental: TLR7/8/9 Inhibition Reporter Assays
as §1

[1] = oral dose 0.0015 mg/kg 30 min before i.p. gardiquimod
[2] = oral dose 0.003 mg/kg 30 min before i.p. gardiquimod
[3] = oral dose 0.015 mg/kg 30 min before i.p. gardiquimod
[4] = oral dose 0.075 mg/kg 30 min before i.p. gardiquimod
[5] = oral dose 0.15 mg/kg 30 min before i.p. gardiquimod
[6] = oral dose 0.006 mg/kg 30 min before i.p. gardiquimod
[7] = oral dose 0.03 mg/kg 30 min before i.p. gardiquimod
[8] = oral dose 0.3 mg/kg 30 min before i.p. gardiquimod
[9] = oral dose 0.005 mg/kg 30 min before i.p. gardiquimod
[10] = oral dose 0.01 mg/kg 30 min before i.p. gardiquimod
[11] = oral dose 0.05 mg/kg 30 min before i.p. gardiquimod
[12] = oral dose 0.25 mg/kg 30 min before i.p. gardiquimod
[13] = oral dose 0.5 mg/kg 30 min before i.p. gardiquimod

TLR7, sequence (P58681 27-1050): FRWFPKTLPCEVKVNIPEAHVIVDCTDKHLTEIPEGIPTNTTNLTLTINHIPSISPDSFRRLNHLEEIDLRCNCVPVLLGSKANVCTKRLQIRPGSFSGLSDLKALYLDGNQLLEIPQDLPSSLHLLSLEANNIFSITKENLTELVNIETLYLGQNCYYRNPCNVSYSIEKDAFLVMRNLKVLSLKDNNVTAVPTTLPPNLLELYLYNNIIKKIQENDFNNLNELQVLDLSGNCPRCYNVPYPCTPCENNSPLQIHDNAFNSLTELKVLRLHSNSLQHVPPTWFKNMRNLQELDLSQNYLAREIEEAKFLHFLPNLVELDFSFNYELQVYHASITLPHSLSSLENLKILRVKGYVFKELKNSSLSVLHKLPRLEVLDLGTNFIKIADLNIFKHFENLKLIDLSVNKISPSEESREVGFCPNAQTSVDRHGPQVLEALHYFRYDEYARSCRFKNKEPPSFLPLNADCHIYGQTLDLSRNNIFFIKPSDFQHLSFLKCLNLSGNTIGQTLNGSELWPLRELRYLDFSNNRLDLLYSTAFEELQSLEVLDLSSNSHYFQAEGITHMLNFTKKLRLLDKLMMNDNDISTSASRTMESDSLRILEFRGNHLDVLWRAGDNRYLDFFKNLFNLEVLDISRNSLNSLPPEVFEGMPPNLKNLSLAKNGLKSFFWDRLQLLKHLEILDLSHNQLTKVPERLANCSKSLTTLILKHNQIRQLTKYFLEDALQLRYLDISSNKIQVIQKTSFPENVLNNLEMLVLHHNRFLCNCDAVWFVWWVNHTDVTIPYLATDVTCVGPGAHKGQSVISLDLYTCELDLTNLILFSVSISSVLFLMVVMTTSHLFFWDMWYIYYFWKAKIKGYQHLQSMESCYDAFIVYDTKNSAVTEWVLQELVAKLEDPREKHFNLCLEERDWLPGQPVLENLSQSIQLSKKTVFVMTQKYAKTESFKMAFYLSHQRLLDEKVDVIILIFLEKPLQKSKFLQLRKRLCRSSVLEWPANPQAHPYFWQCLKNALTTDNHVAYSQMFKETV
human TLR8, sequence (Q9NR97 27-1041): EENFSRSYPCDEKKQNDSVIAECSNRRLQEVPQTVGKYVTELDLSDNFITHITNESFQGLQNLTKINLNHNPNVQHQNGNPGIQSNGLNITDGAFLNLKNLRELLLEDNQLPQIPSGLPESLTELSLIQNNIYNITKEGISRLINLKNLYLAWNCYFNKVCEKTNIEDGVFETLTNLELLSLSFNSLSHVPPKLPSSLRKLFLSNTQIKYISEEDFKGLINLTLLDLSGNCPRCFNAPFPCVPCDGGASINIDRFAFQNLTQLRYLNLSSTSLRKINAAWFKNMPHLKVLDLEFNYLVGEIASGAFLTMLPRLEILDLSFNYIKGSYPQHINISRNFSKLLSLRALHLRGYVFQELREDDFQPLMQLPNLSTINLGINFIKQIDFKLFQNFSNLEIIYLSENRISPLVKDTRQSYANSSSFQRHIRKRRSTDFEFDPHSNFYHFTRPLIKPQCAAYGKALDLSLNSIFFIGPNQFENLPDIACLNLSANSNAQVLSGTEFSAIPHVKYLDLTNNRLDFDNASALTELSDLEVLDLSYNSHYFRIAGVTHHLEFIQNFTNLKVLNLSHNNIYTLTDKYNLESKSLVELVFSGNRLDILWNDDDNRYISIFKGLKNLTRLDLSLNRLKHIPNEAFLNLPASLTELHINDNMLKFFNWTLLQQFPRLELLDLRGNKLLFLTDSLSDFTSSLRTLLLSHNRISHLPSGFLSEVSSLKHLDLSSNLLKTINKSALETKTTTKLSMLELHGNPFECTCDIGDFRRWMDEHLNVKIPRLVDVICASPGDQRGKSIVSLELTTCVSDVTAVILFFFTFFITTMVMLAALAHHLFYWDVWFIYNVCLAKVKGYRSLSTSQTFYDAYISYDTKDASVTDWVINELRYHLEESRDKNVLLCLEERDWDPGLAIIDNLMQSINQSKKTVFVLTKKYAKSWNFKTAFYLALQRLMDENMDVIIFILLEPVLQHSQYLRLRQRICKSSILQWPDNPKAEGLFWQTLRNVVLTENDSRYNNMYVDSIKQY
human TLR7, sequence (Q9NYK1 27-1049): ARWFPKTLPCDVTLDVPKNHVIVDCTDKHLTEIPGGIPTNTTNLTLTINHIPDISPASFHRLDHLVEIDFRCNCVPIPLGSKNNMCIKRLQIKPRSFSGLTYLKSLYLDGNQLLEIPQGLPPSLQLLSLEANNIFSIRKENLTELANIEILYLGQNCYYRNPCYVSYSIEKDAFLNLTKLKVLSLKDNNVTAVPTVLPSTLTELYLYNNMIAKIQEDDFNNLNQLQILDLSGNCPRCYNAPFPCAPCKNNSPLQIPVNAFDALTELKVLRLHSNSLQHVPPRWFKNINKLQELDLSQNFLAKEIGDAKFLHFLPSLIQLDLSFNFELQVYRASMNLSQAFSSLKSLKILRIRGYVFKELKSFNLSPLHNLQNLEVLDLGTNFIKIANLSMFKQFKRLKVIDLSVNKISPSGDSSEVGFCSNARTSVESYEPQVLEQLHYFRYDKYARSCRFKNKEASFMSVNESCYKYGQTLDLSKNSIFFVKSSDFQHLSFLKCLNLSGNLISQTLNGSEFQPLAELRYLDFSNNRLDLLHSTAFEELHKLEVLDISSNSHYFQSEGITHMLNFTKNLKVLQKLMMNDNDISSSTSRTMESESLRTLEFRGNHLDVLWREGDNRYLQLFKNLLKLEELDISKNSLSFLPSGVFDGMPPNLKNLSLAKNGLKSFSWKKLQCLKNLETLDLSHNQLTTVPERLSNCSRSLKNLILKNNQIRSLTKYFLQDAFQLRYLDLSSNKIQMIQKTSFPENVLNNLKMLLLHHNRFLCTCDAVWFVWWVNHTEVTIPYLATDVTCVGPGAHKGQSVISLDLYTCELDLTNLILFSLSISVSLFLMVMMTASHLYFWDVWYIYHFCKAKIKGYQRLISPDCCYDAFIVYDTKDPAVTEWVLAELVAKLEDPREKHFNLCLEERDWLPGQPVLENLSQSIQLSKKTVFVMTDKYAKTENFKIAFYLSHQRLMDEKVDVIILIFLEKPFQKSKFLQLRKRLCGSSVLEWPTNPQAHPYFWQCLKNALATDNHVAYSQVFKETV
human TLR9, sequence (Q9NR96 26-1032): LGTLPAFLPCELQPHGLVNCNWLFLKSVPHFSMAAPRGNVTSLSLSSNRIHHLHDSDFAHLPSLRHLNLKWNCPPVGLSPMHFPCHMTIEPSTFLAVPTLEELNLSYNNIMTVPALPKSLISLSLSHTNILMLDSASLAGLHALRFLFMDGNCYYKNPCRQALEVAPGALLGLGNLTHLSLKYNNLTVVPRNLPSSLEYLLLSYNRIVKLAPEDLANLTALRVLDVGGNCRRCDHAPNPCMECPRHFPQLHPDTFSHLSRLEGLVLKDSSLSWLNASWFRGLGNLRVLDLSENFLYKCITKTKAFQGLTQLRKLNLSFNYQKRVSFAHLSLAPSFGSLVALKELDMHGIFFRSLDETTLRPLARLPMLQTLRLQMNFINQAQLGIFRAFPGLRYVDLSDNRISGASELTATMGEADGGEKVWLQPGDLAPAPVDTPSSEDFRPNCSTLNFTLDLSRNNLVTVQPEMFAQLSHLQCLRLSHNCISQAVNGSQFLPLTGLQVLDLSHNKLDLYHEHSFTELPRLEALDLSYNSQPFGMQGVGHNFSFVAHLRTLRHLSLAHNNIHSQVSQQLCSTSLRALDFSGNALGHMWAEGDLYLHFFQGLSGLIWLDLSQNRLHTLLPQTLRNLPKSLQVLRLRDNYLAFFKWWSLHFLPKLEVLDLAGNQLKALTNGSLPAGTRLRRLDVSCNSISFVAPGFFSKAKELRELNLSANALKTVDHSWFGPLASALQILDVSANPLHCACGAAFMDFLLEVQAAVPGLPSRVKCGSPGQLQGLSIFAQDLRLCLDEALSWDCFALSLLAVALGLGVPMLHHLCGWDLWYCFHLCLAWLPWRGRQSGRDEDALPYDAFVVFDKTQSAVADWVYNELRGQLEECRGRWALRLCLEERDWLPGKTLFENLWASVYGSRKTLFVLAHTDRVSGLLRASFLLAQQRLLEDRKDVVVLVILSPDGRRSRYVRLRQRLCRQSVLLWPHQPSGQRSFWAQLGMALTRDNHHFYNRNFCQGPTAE

% inhibition of IFN-alpha (TLR7; [1]): 0%
% inhibition of IL6 (TLR7; [1]): 0%
% inhibition of IFN-alpha (TLR7; [2]): 33%
% inhibition of IL6 (TLR7; [2]): 23%
% inhibition of IFN-alpha (TLR7; [3]): 74%
% inhibition of IL6 (TLR7; [3]): 75%
% inhibition of IFN-alpha (TLR7; [4]): 93%
% inhibition of IL6 (TLR7; [4]): 76%
% inhibition of IFN-alpha (TLR7; [5]): 99%
% inhibition of IL6 (TLR7; [5]): 95%
Structure (SMILES): Cc1c(-c2[nH]c3ccc(C4CCC(NCC5(S(C)(=O)=O)CC5)CC4)nc3c2C(C)C)cn2ncnc2c1C (stereo not drawn) [Example 4, 4-(2-(7,8-dimethyl-[1,2,4]triazolo[1,5-a]pyridin-6-yl)-3-isopropyl-1H-pyrrolo[3,2-b]pyridin-5-yl)-N-((1-(methylsulfonyl)cyclopropyl)methyl)cyclohexan-1-amine]

IC50 (human TLR9): 9840 nM
IC50 (human TLR7): 4.3 nM
IC50 (human TLR8): 9.2 nM
Structure (SMILES): Cc1c(-c2[nH]c3ccc(N4C[C@H]5C[C@@H]4CN5C4CCOC4)nc3c2C(C)C)cn2ncnc2c1C (stereo partly drawn) [Example 771]

% inhibition of IFN-alpha (TLR7; [2]): 36%
% inhibition of IL6 (TLR7; [2]): 25%
% inhibition of IFN-alpha (TLR7; [6]): 57%
% inhibition of IL6 (TLR7; [6]): 41%
% inhibition of IFN-alpha (TLR7; [7]): 67%
% inhibition of IL6 (TLR7; [7]): 56%
% inhibition of IFN-alpha (TLR7; [5]): 96%
% inhibition of IL6 (TLR7; [5]): 78%
% inhibition of IFN-alpha (TLR7; [8]): 98%
% inhibition of IL6 (TLR7; [8]): 82%
Structure (SMILES): Cc1c(-c2[nH]c3ccc(C4CCC(N5CC6(C5)CS(=O)(=O)C6)CC4)nc3c2C(C)C)cn2ncnc2c1C (stereo not drawn) [Example 438, 6-((1r,4r)-(4-(2-(7,8-dimethyl-[1,2,4]triazolo[1,5-a]pyridin-6-yl)-3-isopropyl-1H-pyrrolo[3,2-b]pyridin-5-yl)cyclohexyl)-2-thia-6-azaspiro[3.3]heptane 2,2-dioxide]

% inhibition of IFN-alpha (TLR7; [9]): 29%
% inhibition of IL6 (TLR7; [9]): 0%
% inhibition of IFN-alpha (TLR7; [10]): 37%
% inhibition of IL6 (TLR7; [10]): 24%
% inhibition of IFN-alpha (TLR7; [11]): 94%
% inhibition of IL6 (TLR7; [11]): 75%
% inhibition of IFN-alpha (TLR7; [12]): 99%
% inhibition of IL6 (TLR7; [12]): 90%
% inhibition of IFN-alpha (TLR7; [13]): 100%
% inhibition of IL6 (TLR7; [13]): 91%
Structure (SMILES): Cc1c(-c2[nH]c3ccc(N4CCN(C(=O)CN(C)C)CC4)nc3c2C(C)C)cn2ncnc2c1C [Example 3, 1-(4-(2-(7,8-dimethyl-[1,2,4]triazolo[1,5-a]pyridin-6-yl)-3-isopropyl-1H-pyrrolo[3,2-b]pyridin-5-yl)piperazin-1-yl)-2-(dimethylamino)ethan-1-one]
